Key:
Type in all cases: cell-based, human
[1] = test system: poly-(ADP-ribose) polymerase (PARP) in AGS cells; assay: Western blot of PARP cleavage; settings: for PARP cleavage (85-kDa fragment): AGS cells treated for 24, FIG. 6A
Protocol: (§1) Western Blotting. The nuclear and cytosolic proteins were isolated from AGS cells after treatment with 60 μM for 0, 3, 6, 9, 12, 18, and 24 h. The total proteins were extracted via the addition of 200 μL of gold lysis buffer (50 mM Tris-HCl, pH 7.4; 1 mM NaF; 150 mM NaCl; 1 mM EGTA; 1 mM phenylmethanesulfonyl fluoride; 1% NP-40; and 10 μg/mL leupeptin) to the cell pellets on ice for 30 min, followed by centrifugation at 10,000 g for 30 min at 4° C. The cytosolic fraction (supernatant) proteins were measured by Bio-Rad protein assay (Bio-Rad Laboratories, Munich, Germany). The samples (50 μg of protein) were mixed with 5× sample buffer containing 0.3 M Tris-HCl (pH 6.8), 25% 2-mercaptoethanol, 12% sodium dodecyl sulfate (SDS), 25 mM EDTA, 20% glycerol, and 0.1% bromophenol blue. The mixtures were boiled at 100° C. for 5 min and were subjected to 12% SDS-polyacrylamide minigels at a constant current of 20 mA. Subsequently, electrophoresis was ordinarily carried out on SDS-polyacrylamide gels. For electrophoresis, proteins on the gel were electrotransferred onto an immobile membrane (PVDF; Millipore Corp., Bedford, Mass.) with transfer buffer composed of 25 mM Tris-HCl (pH 8.9), 192 mM glycine, and 20% methanol. The membranes were blocked with blocking solution containing 20 mM Tris-HCl and then immunoblotted with primary antibodies including, anti-Bcl-XL, anti-β-actin (Transduction Laboratory, Lexington, Ky.), anti-PARP (UBI, Inc., Lake Placid, N.Y.), at room temperature for 1 h. Detection was achieved by measuring the chemiluminescence of blotting agent (ECL, Amersham Corp., Arlington Heights, Ill.), after exposure of the filters to KODAK X-OMAT films.
Activation of caspase-3 leads to the cleavage of a number of proteins, one of which is poly-(ADP-ribose) polymerase (PARP). A hallmark of apoptosis is that PARP (116 kDa) is cleaved to produce an 85-kDa fragment. PARP cleavage was examined in cells treated with NAB or ANAB for 24.

[2] = test system: Bcl-XL in AGS cells; assay: Western blot of Bcl-XL expression; settings: for Bcl-XL expression: various concentrations, 24 hours, FIG. 7A
Protocol: as §1, with “The nuclear and cytosolic proteins were isolated from AGS cells after treatment with 60 μM for 0, 3, 6, 9, 12, 18, and 24 h.” left out
Several gene products are known to be important in controlling the apoptotic process. The imbalance of expression of anti- and pro-apoptotic proteins after a stimulus is one of the major mechanisms underlying the ultimate fate of cells in the apoptotic process. Bcl-XL expression in tumor cells, for instance, confers resistance against chemotherapeutic drugs. The expression of anti-apoptotic protein Bcl-XL was therefore examined in cancer cells treated with various concentrations of NAB or ANAB for 24 hours. […] FIG. 7A. […] FIG. 7B.

[3] = test system: AGS cells; assay: DNA fragmentation by agarose gel electrophoresis; settings: 15 μM, 24 h, FIG. 4
Protocol: DNA Extraction and Electrophoresis Analysis. The AGS human cancer cells were harvested, washed with phosphate-buffered saline (PBS), and then lysed with digestion buffer containing 0.5% sarkosyl, 0.5 mg/mL proteinase K, 50 mM tris(hydroxy methyl)aminomethan (pH 8.0), and 10 mM EDTA at 56° C. overnight and treated with RNase A (0.5 μg/mL) for 3 h at 56° C. The DNA was extracted by phenol/chloroform/isoamyl (25:24:1) before loading and was analyzed by 2% agarose gel electrophoresis. The agarose gels were run at 50 V for 120 min in Tris-borate/EDTA electrophoresis buffer (TBE). Approximately 20 μg of DNA was loaded in each well and visualized under UV light, and photographed.
(§2) Physiological cell death is characterized by apoptotic morphology, including chromatin condensation, membrane blebbing, internucleosome degradation of DNA, and apoptotic body formation. Nucleosomal DNA ladders visible on agarose gel after staining with ethidium bromide are typical of apoptotic cell samples. To investigate whether the cytotoxic effects of NAB and ANAB observed in AGS cells were due to the presence of apoptotic cell death, cells were treated with […] (0-25 μM) for 24 h and DNA fragmentation analyses were performed. […] FIG. 5.

[4] = test system: AGS cells; assay: Morphological changes by light microscopy; settings: 10 μM, within 24 h, FIG. 5
From the text: FIG. 5 provides light microscopic images showing the morphological changes of AGS cells, including the induction of apoptotic bodies from AGS cells, induced by NAB and ANAB.
as §2

Row | SMILES | PARP cleavage (85-kDa fragment) [1] | Bcl-XL expression [2] | DNA fragmentation (DNA ladders) [3] | morphological changes [4] | PARP cleavage over time ([1]; 15 μM, time course, FIG. 6B) | Bcl-XL expression over time ([2]; at 12 h, 15 μM, FIG. 7B)
1 | C=C1C(=O)OC2C=C(C)CCC=C(C)CC(O)C12 (stereo not drawn) [Compound 3, 4-hydroxy-3α,4,5,8,9,11α-hexahydro-6,10-dimethyl-3-methylene-cyclodeca[b]furan-2(3H)-one] | PARP proteolytic fragment was found | dose-dependent decrease of Bcl-XL |  |  |  | 
2 | C=C1C(=O)O[C@H]2/C=C(\C)CC/C=C(\C)C[C@H](OC(C)=O)[C@@H]12 [Compound 4, acetyl neobritannilactone B] | PARP proteolytic fragment was found | dose-dependent decrease of Bcl-XL | significant DNA ladders were observed | significant morphological changes and chromosomal condensation | time-dependent proteolytic cleavage of PARP | marked and significant change in the expression of Bcl-XL

— patent US20070244190A1, “Neobritannilactone B and acetyl neobritannilactone B” (priority 2006, published 2007)
